17 compounds from patent publication US20100152197A1, “(4-TERT-BUTYLPIPERAZIN-2-YL)(PIPERAZIN-1-YL)METHANONE-N-CARBOXAMIDE DERIVATIVES” (ASTRAZENECA AB, priority 2008, published 2010) can be followed below.

The structures appear in SMILES notation.

The target in the test is T1, CCR2 (Homo sapiens, UniProt P41597).
T1 construct: cell membranes containing 6×10^6cells/ml equivalent; endogenous in cells; host or cells: THP1 cells (membrane fragments)
T1 sequence (P41597 1-360 isoform P41597-2): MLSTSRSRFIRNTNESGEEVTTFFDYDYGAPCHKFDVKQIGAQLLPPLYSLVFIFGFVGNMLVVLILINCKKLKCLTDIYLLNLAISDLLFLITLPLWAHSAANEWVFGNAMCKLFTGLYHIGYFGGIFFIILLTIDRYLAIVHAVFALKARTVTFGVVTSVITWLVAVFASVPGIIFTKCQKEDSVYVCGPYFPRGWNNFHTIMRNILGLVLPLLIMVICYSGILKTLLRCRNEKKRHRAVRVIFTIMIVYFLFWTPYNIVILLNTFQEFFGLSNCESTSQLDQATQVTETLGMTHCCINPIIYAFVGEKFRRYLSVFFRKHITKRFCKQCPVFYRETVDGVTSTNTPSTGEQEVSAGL
As to the kind of experiment: hMCP-1 THP1 receptor-binding assay (125I-labeled MCP-1, SPA, THP1 cell membranes). Particulars: 250 pM 125I-labeled MCP-1, THP1 cell membranes, room temperature 16 hours; read-out: CCR2 Binding pIC50 (converted). The procedure: hMCP-1 THP1 Receptor-Binding Assay
i) Preparation of Membrane Fragments
THP1 cells were grown in RPMI (Sigma) supplemented with 10% foetal calf serum, 2 mM glutamine (Gibco), 100 units/ml Penicillin and 100 μg/ml Streptomycin (Invitrogen). Membrane fragments were prepared using cell lysis/differential centrifugation methods as described previously (Siciliano et al., 1990, J. Biol. Chem., 265, 19658). Protein concentration was estimated by BCA protein assay (Pierce, Rockford, Ill.) according to the manufacturer's instructions.
^125I-labeled MCP-1 was prepared using Bolton and Hunter conjugation (Bolton et al., 1973, Biochem. J., 133, 529; Amersham International plc).
Test compounds were dissolved in DMSO and further diluted in assay buffer (50 mM HEPES, 1 mM CaCl2, 5 mM MgCl2, 1 mM EDTA, 0.03% BSA, pH 7.2) to give a range of concentrations starting with a top final concentration of up to 10 μM. […] Incubations contained 250 pM ^125I-labeled MCP-1 (GE Healthcare), 0.5 mg Scintillation proximity assay beads (GE Healthcare RPNQ001) and cell membranes containing 6×10^6cells/ml equivalent. Non-specific binding was determined by the inclusion of 10 μM of a known CCR2b antagonist in the place of test compound. Total binding was determined in the presence of 1% DMSO without compound. Incubations were performed in sealed optiplates and kept at room temperature for 16 hours after which the plates were counted on a Packard TopCount (Packard TopCount™). Dose-response curves were generated using “in-house” data analysis package incorporating Origin software to determine IC50 values. Percent inhibitions were calculated for single concentrations of compound by using the following formula 100−((compound binding minus non-specific binding)/(total binding minus non-specific binding)×100).
For the compound `CC(C)(C)N1CCN[C@@H](C(=O)N2CCN(C(=O)Nc3cccc(C(F)(F)F)c3)CC2)C1` [Example 1, 4-[(2R)-4-tert-butylpiperazine-2-carbonyl]-N[3(trifluoromethyl)phenyl]piperazine-1-carboxamide], the IC50 is 3.09 nM.
To `CC(C)(C)N1CCN[C@@H](C(=O)N2CCN(C(=O)Nc3cccc(Cl)c3)CC2)C1` [Example 2, 4-[(2R)-4-tert-butylpiperazine-2-carbonyl]-N-(3-chlorophenyl)piperazine-1-carboxamide] belongs 2.57 nM; to `CC(C)(C)N1CCN[C@@H](C(=O)N2CCN(C(=O)Nc3cccc(SC(F)(F)F)c3)CC2)C1` [Example 3, 4-[(2R)-4-tert-butylpiperazine-2-carbonyl]-N-[3-(trifluoromethylsulfanyl)phenyl]piperazine-1-carboxamide], 2.82 nM; to `CC(C)(C)N1CCN[C@@H](C(=O)N2CCN(C(=O)Nc3ccc(Br)cc3)CC2)C1` [Example 4, N-(4-bromophenyl)-4-[(2R)-4-tert-butylpiperazine-2-carbonyl]piperazine-1-carboxamide], 6.76 nM.
To `CC(C)(C)N1CCN[C@@H](C(=O)N2CCN(C(=O)Nc3ccc(F)c(C(F)(F)F)c3)CC2)C1` [Example 5, 4-[(2R)-4-tert-butylpiperazine-2-carbonyl]-N-[4-fluoro-3(trifluoromethyl)phenyl]piperazine-1-carboxamide] belongs 2 nM; to `Cc1ccc(NC(=O)N2CCN(C(=O)[C@H]3CN(C(C)(C)C)CCN3)CC2)cc1C(F)(F)F` [Example 6, 4-[(2R)-4-tert-butylpiperazine-2-carbonyl]-N-[4-methyl-3-(trifluoromethyl)phenyl]piperazine-1-carboxamide], 1.82 nM.
Turning to `CC(C)(C)N1CCN[C@@H](C(=O)N2CCN(C(=O)Nc3ccc(F)c(Cl)c3)CC2)C1` [Example 7, 4-[(2R)-4-tert-butylpiperazine-2-carbonyl]-N-(3-chloro-4-fluorophenyl)piperazine-1-carboxamide], the IC50 is 8.51 nM.
With `CC(C)(C)N1CCN[C@@H](C(=O)N2CCN(C(=O)Nc3ccc(C#N)c(C(F)(F)F)c3)CC2)C1` [Example 8, 4-[(2R)-4-tert-butylpiperazine-2-carbonyl]-N-[4-cyano-3-(trifluoromethyl)phenyl]piperazine-1-carboxamide], the IC50 is 7.24 nM.
The result for `CC(C)(C)N1CCN[C@@H](C(=O)N2CCN(C(=O)Nc3ccc(Cl)c(F)c3)CC2)C1` [Example 9, 4-[(2R)-4-tert-butylpiperazine-2-carbonyl]-N-(4-chloro-3-fluorophenyl)piperazine-1-carboxamide] reads 2.57 nM.
The result for `CC(C)(C)N1CCN[C@@H](C(=O)N2CCN(C(=O)Nc3cccc(OC(F)(F)C(F)F)c3)CC2)C1` [Example 10, 4-[(2R)-4-tert-butylpiperazine-2-carbonyl]-N-[3-(1,1,2,2-tetrafluoroethoxy)phenyl]piperazine-1-carboxamide] reads 6.76 nM.
The result for `Cc1cc(NC(=O)N2CCN(C(=O)[C@H]3CN(C(C)(C)C)CCN3)CC2)ccc1Cl` [Example 11, 4-[(2R)-4-tert-butylpiperazine-2-carbonyl]-N-(4-chloro-3-methylphenyl)piperazine-1-carboxamide] reads 2.29 nM; that for `CC(C)(C)N1CCN[C@@H](C(=O)N2CCN(C(=O)Nc3cccc(OCc4ccccc4)c3)CC2)C1` [Example 12, 4-[(2R)-4-tert-butylpiperazine-2-carbonyl]-N-(3-phenylmethoxyphenyl)piperazine-1-carboxamide], 1.82 nM.
On to `CC(C)(C)N1CCN[C@@H](C(=O)N2CCN(C(=O)Nc3ccc(OC(F)(F)F)c(Cl)c3)CC2)C1` [Example 13, 4-[(2R)-4-tert-butylpiperazine-2-carbonyl]-N-[3-chloro-4-(trifluoromethoxy)phenyl]piperazine-1-carboxamide], for which the IC50 was less than 0.871 nM.
The result for `Cc1nc(NC(=O)N2CCN(C(=O)[C@H]3CN(C(C)(C)C)CCN3)CC2)sc1Br` [Example 14, N-(5-bromo-4-methyl-1,3-thiazol-2-yl)-4-[(2R)-4-tert-butylpiperazine-2-carbonyl]piperazine-1-carboxamide] reads 2.75 nM; that for `CCc1nc(NC(=O)N2CCN(C(=O)[C@H]3CN(C(C)(C)C)CCN3)CC2)sc1Cl` [Example 15, 4-[(2R)-4-tert-butylpiperazine-2-carbonyl]-N-(5-chloro-4-ethyl-1,3-thiazol-2-yl)piperazine-1-carboxamide], less than 0.447 nM; that for `Cc1nc(NC(=O)N2CCN(C(=O)[C@H]3CN(C(C)(C)C)CCN3)CC2)sc1Cl` [Example 16, 4-[(2R)-4-tert-butylpiperazine-2-carbonyl]-N-(5-chloro-4-methyl-1,3-thiazol-2-yl)piperazine-1-carboxamide], 1.26 nM.
The result for `CC(C)(C)N1CCN[C@@H](C(=O)N2CCN(C(=O)Nc3nc(C(F)(F)F)c(Cl)s3)CC2)C1` [Example 17, 4-[(2R)-4-tert-butylpiperazine-2-carbonyl]-N-[5-chloro-4-(trifluoromethyl)-1,3-thiazol-2-yl]piperazine-1-carboxamide] reads less than 0.447 nM.
